The values below come from patent publication US20090005374A1, “IMIDAZOPYRIDINYL THIAZOLYL HISTONE DEACETYLASE INHIBITORS” (priority 2007, published 2009).

The target of series [1] is T1, HDAC 6 (Homo sapiens, UniProt Q9UBN7).
T1 sequence (Q9UBN7 1-1215): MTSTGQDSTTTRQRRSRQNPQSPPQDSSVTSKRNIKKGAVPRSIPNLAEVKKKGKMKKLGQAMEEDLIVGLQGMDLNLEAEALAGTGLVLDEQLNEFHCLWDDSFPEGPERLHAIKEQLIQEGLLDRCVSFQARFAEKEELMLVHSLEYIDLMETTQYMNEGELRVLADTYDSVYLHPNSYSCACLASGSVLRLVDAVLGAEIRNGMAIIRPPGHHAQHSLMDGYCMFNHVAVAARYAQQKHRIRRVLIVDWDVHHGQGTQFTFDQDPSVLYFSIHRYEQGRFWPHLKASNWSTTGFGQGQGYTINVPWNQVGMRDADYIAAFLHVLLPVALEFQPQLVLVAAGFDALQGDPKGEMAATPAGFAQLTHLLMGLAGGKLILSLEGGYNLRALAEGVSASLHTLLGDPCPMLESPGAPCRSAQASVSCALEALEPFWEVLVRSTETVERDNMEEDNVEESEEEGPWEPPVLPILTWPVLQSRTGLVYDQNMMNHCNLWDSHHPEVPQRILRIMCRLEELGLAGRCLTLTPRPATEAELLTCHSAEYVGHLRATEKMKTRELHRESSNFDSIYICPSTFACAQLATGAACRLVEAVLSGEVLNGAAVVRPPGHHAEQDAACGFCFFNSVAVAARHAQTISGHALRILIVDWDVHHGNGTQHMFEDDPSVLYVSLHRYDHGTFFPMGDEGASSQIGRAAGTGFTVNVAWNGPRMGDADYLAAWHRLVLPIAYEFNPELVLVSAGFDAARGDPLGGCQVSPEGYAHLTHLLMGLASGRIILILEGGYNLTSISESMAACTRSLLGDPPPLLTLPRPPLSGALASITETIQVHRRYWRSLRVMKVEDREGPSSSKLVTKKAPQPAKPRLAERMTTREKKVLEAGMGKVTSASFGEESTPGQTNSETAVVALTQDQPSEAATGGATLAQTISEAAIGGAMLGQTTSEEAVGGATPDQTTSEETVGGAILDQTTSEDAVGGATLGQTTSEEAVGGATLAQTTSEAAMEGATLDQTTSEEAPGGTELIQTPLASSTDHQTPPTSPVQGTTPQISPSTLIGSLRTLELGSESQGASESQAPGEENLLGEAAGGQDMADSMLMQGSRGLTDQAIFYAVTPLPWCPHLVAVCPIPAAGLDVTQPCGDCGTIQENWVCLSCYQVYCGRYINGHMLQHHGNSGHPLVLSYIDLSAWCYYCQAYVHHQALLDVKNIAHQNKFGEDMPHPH
Kind of series: HDAC 6 fluorogenic peptide substrate assay without preincubation. The conditions noted are these: no preincubation; read-out: HDAC 6 inhibitory activity (IC50) No preincubation. It is filed as biochemical. As for the experimental part:
(§1) HDAC inhibitory activity of the compound of Example 1 was measured by two types of assays in which HDAC 1 and 6 were used as a target molecule. The first assay was carried out without preincubation after addition of the enzyme. The test compound was suspended in and titrated in DMSO. It was then spotted into a 384-well test plate. The enzyme, HDAC 1 or 6, was diluted in assay buffer containing 25 mM Tris-HCl (pH 8.0), 137 mM NaCl, 2.7 mM KCl, and 0.01% Tween-20 and added to the pre-spotted compound. The peptide substrate containing a fluorophore/quencher pair was diluted in the same assay buffer and added to the compound/enzyme mix initiating the reaction. The reaction incubated at room temperature for about 45 minutes. A concentrated developer solution was diluted in the assay buffer, and added to the reaction. The reaction was incubated at room temperature for about 15 minutes and relative fluorescence was read on an instrument reader.

Series [2] deals with T1, HDAC 6. Kind of series: HDAC 6 fluorogenic peptide substrate assay with 3-hour enzyme/compound preincubation. The class given is biochemical. The conditions noted are these: 3-hour preincubation of enzyme and compound; read-out: HDAC 6 inhibitory activity (IC50) 3-hour preincubation. As for the experimental part:
(§2) The second assay is similar to the first assay described above, except that preincubation is carried out for about 3 hours after the enzyme is introduced. The test compound was suspended in, and titrated in DMSO. It was then spotted into a 384-well test plate. The enzyme, HDAC 1 or 6, was diluted in the same assay buffer as used in the previous assay and added to the pre-spotted compound. The enzyme/compound mix was incubated at room temperature for about 3 hours. The peptide substrate containing a fluorophore/quencher pair was diluted in the assay buffer and added to the compound/enzyme mix initiating the reaction. The reaction incubated at room temperature for 45 minutes. A concentrated developer solution was diluted in the assay buffer, and added to the reaction. The reaction was incubated at room temperature for about 15 minutes and relative fluorescence was read on an instrument reader.

Series [3] deals with T2, HDAC 1 (Homo sapiens, UniProt Q13547). Kind of series: HDAC 1 fluorogenic peptide substrate assay with 3-hour enzyme/compound preincubation. The class given is biochemical. The conditions noted are these: 3-hour preincubation of enzyme and compound; read-out: HDAC 1 inhibitory activity (IC50) 3-hour preincubation. As for the experimental part: as §2
T2 sequence (Q13547 whole entry, species assumed): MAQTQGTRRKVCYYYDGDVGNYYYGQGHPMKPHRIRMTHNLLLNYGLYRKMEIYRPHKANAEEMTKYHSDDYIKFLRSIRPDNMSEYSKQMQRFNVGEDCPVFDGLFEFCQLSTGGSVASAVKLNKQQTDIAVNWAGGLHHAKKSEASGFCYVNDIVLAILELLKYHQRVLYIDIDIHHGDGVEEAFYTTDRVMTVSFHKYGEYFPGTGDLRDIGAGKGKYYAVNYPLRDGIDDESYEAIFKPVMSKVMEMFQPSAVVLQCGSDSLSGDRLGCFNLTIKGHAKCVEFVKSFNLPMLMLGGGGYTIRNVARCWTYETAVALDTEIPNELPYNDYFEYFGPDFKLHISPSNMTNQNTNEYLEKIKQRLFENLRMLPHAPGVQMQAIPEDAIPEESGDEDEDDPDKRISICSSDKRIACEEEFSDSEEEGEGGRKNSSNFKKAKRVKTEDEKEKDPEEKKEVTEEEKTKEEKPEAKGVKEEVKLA
Series [4] addresses T2, HDAC 1. Kind of series: HDAC 1 fluorogenic peptide substrate assay without preincubation. The class given is biochemical. The conditions noted are these: no preincubation; read-out: HDAC 1 inhibitory activity (IC50) No preincubation. The protocol: as §1

The structures appear in SMILES notation. pIC50: −log10 of the molar value.

As to `Cc1nc2ccccn2c1-c1csc(Nc2cccc(C(=O)Nc3ccccc3N)c2)n1` [Example 2, N-(2-Amino-phenyl)-3-[4-(2-methyl-imidazo[1,2-a]pyridin-3-yl)-thiazol-2-ylamino]-benzamide], the melting point (as a rule, the temperature of the solid-liquid transition) was in the range of 194.9 to 197 °C. Moreover, at HDAC 6 [1], the pIC50 (commonly −log10 of the IC50, conventionally taken in molar units) is under 4.30. For the same compound, the pIC50 at HDAC 6 [2] is under 4.30. The pIC50 at HDAC 1 [3] was 4.38. At HDAC 1 [4], the pIC50 was 5.49.
As to `Cc1nc2ccc(Cl)cn2c1-c1csc(Nc2ccc(C(=O)Nc3ccccc3N)cc2)n1` [Example 8, N-(2-Amino-phenyl)-4-[4-(6-chloro-2-methyl-imidazo[1,2-a]pyridin-3-yl)-thiazol-2-ylamino]-benzamide], the pIC50 at HDAC 1 [3] is 7.29.
Consider `Cc1sc(Nc2ccc(C(=O)Nc3ccccc3N)cc2)nc1-c1cnc2ccccn12` [Example 17, N-(2-Amino-phenyl)-4-(4-imidazo[1,2-a]pyridin-3-yl-5-methyl-thiazol-2-ylamino)-benzamide], for which the melting point was determined as 186.5 °C. The pIC50 at HDAC 1 [3] is 7.61.
Compound `Cc1nc2ccccn2c1-c1csc(Nc2ccc(C(=O)Nc3ccccc3N)cc2)n1` [Example 4, N-(2-Amino-phenyl)-4-[4-(2-methyl-imidazo[1,2-a]pyridin-3-yl)-thiazol-2-ylamino]-benzamide] gave a melting point of 161.1 to 165.4 °C. Further, the pIC50 at HDAC 6 [1] was under 4.30. Besides, on HDAC 6 [2], the pIC50 is under 4.30. The pIC50 at HDAC 1 [3] is 7.10. Besides, the pIC50 on HDAC 1 [4] was 6.50.
The compound `Cc1nc2ccccn2c1-c1csc(Nc2ccc(C(=O)NO)cc2)n1` [Example 3, N-Hydroxy-4-[4-(2-methyl-imidazo[1,2-a]pyridin-3-yl)-thiazol-2-ylamino]-benzamide] registered a melting point of 188.3 °C. Further, the pIC50 on HDAC 6 [1] was 7.33. Further, the pIC50 at HDAC 6 [2] was 7.25. At HDAC 1 [3], the pIC50 was 7.27. Moreover, at HDAC 1 [4], the pIC50 is 7.10.
Turning to `Nc1ccccc1NC(=O)c1ccc(Nc2ncc(-c3cnc4ccccn34)s2)cc1` [Example 20, N-(2-Amino-phenyl)-4-(5-imidazo[1,2-a]pyridin-3-yl-thiazol-2-ylamino)-benzamide], the pIC50 at HDAC 1 [3] is 7.32.
Take `Cc1sc(Nc2ccc(C(=O)NO)cc2)nc1-c1cnc2ccccn12` [Example 18, N-Hydroxy-4-(4-imidazo[1,2-a]pyridin-3-yl-5-methyl-thiazol-2-ylamino)-benzamide]: the melting point stood at 262.6 °C. The pIC50 at HDAC 1 [3] was 7.33.
As to `Cc1nc2ccccn2c1-c1csc(N(CC(F)(F)F)c2ccc(C(=O)Nc3ccccc3N)cc2)n1` [Example 21a, N-(2-Amino-phenyl)-4-[[4-(2-methyl-imidazo[1,2-a]pyridin-3-yl)-thiazol-2-yl]-(2,2,2-trifluoro-ethyl)-amino]-benzamide], the pIC50 on HDAC 1 [3] was 6.83.
Consider `O=C(NO)c1cccc(Nc2nc(-c3cnc4ccccn34)cs2)c1` [Example 14, N-Hydroxy-3-(4-imidazo[1,2-a]pyridin-3-yl-thiazol-2-ylamino)-benzamide], for which the melting point turned out to be 184.1 °C. At HDAC 6 [1], the pIC50 is 6.74. Further, on HDAC 1 [3], the pIC50 is 6.94. In addition, the pIC50 at HDAC 1 [4] is 5.27.
As to `Cc1nc2ccc(Cl)cn2c1-c1csc(Nc2ccc(C(=O)NO)cc2)n1` [Example 7, 4-[4-(6-Chloro-2-methyl-imidazo[1,2-a]pyridin-3-yl)-thiazol-2-ylamino]-N-hydroxy-benzamide], the negative-log IC50 (pIC50) on HDAC 1 [3] is 7.66.
On to `Cc1nc2ccc(C(F)(F)F)cn2c1-c1csc(Nc2ccc(C(=O)NO)cc2)n1` [Example 9, N-Hydroxy-4-[4-(2-methyl-6-trifluoromethyl-imidazo[1,2-a]pyridin-3-yl)-thiazol-2-ylamino]-benzamide], for which the melting point was 183.2 °C. Moreover, the pIC50 at HDAC 1 [3] was 6.81.
As to `Cc1nc2ccc(C(F)(F)F)cn2c1-c1csc(Nc2ccc(C(=O)Nc3ccccc3N)cc2)n1` [Example 10, N-(2-Amino-phenyl)-4-[4-(2-methyl-6-trifluoromethyl-imidazo[1,2-a]pyridin-3-yl)-thiazol-2-ylamino]-benzamide], at HDAC 1 [3], the pIC50 was 7.23.
On the same count and under the same terms, in the case of `COc1ccn2c(-c3csc(Nc4ccc(C(=O)NO)cc4)n3)c(C)nc2c1` [Example 12, N-Hydroxy-4-[4-(7-methoxy-2-methyl-imidazo[1,2-a]pyridin-3-yl)-thiazol-2-ylamino]-benzamide] it was 7.20; in that of `Nc1ncccc1NC(=O)c1ccc(Nc2nc(-c3cnc4ccccn34)cs2)cc1` [Example 16, N-(2-Amino-pyridin-3-yl)-4-(4-imidazo[1,2-a]pyridin-3-yl-thiazol-2-ylamino)-benzamide], 5.04.
In turn, `Nc1ccccc1NC(=O)c1ccc(Nc2nc(-c3cnc4ccccn34)cs2)cc1` [Example 15, N-(2-Amino-phenyl)-4-(4-imidazo[1,2-a]pyridin-3-yl-thiazol-2-ylamino)-benzamide] gave a melting point of 229.4 °C. Besides, the pIC50 on HDAC 6 [2] was under 5.00. Moreover, the pIC50 on HDAC 1 [3] was 7.43.
For `Cc1nc2ccccn2c1-c1csc(N(CC(F)(F)F)c2ccc(C(=O)NO)cc2)n1` [Example 21b, N-Hydroxy-4-[[4-(2-methyl-imidazo[1,2-a]pyridin-3-yl)-thiazol-2-yl]-(2,2,2-trifluoro-ethyl)-amino]-benzamide], the pIC50 at HDAC 1 [3] is 5.25.
The same measure, in the same setting: in the case of `Cc1sc(Nc2ccc(C(=O)Nc3nn(-c4ccccc4)cc3N)cc2)nc1-c1cnc2ccccn12` [Example 19, N-(4-Amino-1-phenyl-1H-pyrazol-3-yl)-4-(4-imidazo [1,2-a]pyridin-3-yl-5-methyl-thiazol-2-ylamino)-benzamide] it was 5.22.
In turn, `Cc1nc2ccccn2c1-c1nc(Nc2ccc(C(=O)NO)cc2)sc1C` [Example 5, N-Hydroxy-4-[5-methyl-4-(2-methyl-imidazo[1,2-a]pyridin-3-yl)-thiazol-2-ylamino]-benzamide] registered a melting point of 200.5 °C. Besides, the pIC50 at HDAC 1 [3] is 7.27.
`Cc1nc2ccccn2c1-c1nc(Nc2ccc(C(=O)Nc3ccccc3N)cc2)sc1C` [Example 6, N-(2-Amino-phenyl)-4-[5-methyl-4-(2-methyl-imidazo[1,2-a]pyridin-3-yl)-thiazol-2-ylamino]-benzamide] gave a melting point of 250.1 °C. Moreover, the pIC50 on HDAC 1 [3] is 7.67.
For `COc1ccn2c(-c3csc(Nc4ccc(C(=O)Nc5ccccc5N)cc4)n3)c(C)nc2c1` [Example 11, N-(2-Amino-phenyl)-4-[4-(7-methoxy-2-methyl-imidazo[1,2-a]pyridin-3-yl)-thiazol-2-ylamino]-benzamide] the same measures were 159.7 °C and 7.24.
